What was measured:
JTNT1 single cells = experiment: AFLP analysis of genomic instability in JTNT1 single cells produced in 1 uM diphenylpyrazole; type: cell-based, tobacco
Protocol: JTNT1 Tobacco single cell initiation and sample collection. JTNT1 Tobacco single cells were initiated in two different media, NT1B with 3% sucrose (NT1B-Suc) and NT1B with 3% glycerol (NT1B-Gly) in 3.5 day culture cycle. […] The flasks were closed with a foam stopper and cultured on a orbital shaker at 130 rpm in dark at 25-28° C. The cultures were sub cultured every 3.5 days up to a period of 14 days. Four samples (Suc/Gly grown cells and the control cultures in Suc/Gly media with 0.2% DMSO) of the cultures were harvested every 3.5 days by spinning the suspension at 3000 rpm for 5 minutes. The samples were immediately lyophilized to prevent any cell oxidation to minimize any deleterious effect on the samples introduced post harvest. Single cells were stained with Hoechst nuclear stain for an hour and observed under scopes for any nuclear anomaly up to two culture cycles.
DNA extraction. Genomic DNA from representative samples were harvested from 3.5, 7, 10.5, and 14 days. Suc and Gly cultures along with the controls (10 samples) were extracted using CTAB protocol (See Appendix-Example 12). DNA was quantified using PicoGreen® dye from Molecular Probes, Inc. (Eugene, Oreg.). Each well of a microtiter plate contained 90 μl of 200-fold picogreen combined with 10 μl of DNA sample at 40× dilution or Lambda DNA standards (0, 2.5, 5 and 10 ng/μl). Plates were shaken briefly using standard plate shaker, and fluorescence was read (excitation ˜480 nm, emission ˜520 nm) using Spectra Max GeminiXS fluorometer from Molecular Devices (Sunnyvale, Calif.). Each sample was quantified in triplicate, and an average of the three results was used for subsequent dilutions. The DNA sample concentrations were diluted to working concentration of 91 ng/μl with sterile water.
AFLP analysis. Amplified fragment length polymorphism (AFLP) assays were performed using a modification of the protocol of Vos et. al. (1995), as described in Bryan et. al. (2002). The 6-bp cutting restriction enzyme EcoRI was used in combination with the 4-bp cutting restriction enzyme MseI. EcoR1 fluorescently labeled and Mse1 non-labeled AFLP primers were ordered from Applied Biosystems (Foster City, Calif.). AFLP analysis was carried out using Applied Biosystems' AFLP Plant Mapping Protocol through the selective amplification reaction with one modification. The modification was that digestion/ligation reactions were incubated at 37° C. overnight. Selectively amplified products were diluted 2 fold in sterilized deionized water. 0.5 ul of the diluted product was combined with 5 ul of loading buffer (5 ul GeneScan 500 by LIZ size standard mixed with 500 ul ABI HiDi Formamide). Samples were analyzed on an AB3730XL DNA Analyzer with G5-RCT spectral matrix using standard conditions. Data was then imported into GeneMapper® version 4.0 (Applied Biosystems, 2005). Alleles were assigned a numeric value according to PCR fragment size.

Tobacco BY2 suspension = experiment: BY2 single cell production with diphenylpyrazole; type: cell-based
Protocol: Production of GFP expressing single cells. Single cells were produced by adding 1 uM concentration of the compound DDP (diphenylpyrazole) during the initiation of the 7 d culture cycle in the LSBY2-Gly-B15 medium along with the addition of 0.5 ml Pack Cell Volume (PCV) of GFP expressing suspension aggregates at the stationary phase. Alternately, a 25-ml of suspension aggregates were transferred to a 25-ml of fresh LSBY2-Gly-B15 suspension medium by adding 50 ul of […] diphenylpyrazole stock solution dissolved in DMSO to provide a 1 uM final concentration in the suspension. Thus single cells could be produced in a much shorter cycle of only 3.5 days. The LSBY215 medium always contain 15 mg/l glufosinate ammonium for selection
Initiation of single cells in preparation for plastid transformation. Four milliliters of Tobacco BY2 suspension (at the stationary phase growth maintained on a 7-d cycle) was added to 26 mL of fresh medium that composed of either Medium A [LS salts (PhytoTechnology Laboratories, L689), 120 g/L sucrose, 1 mg/L nicotinic acid, 1 mg/L pyridoxine HCl, 10 mg/L thiamine HCl, and 20 nM diphenylpyrazole (DPP)] or Medium B [LS salts, 120 g/L sucrose, 1 mg/L nicotinic acid, 1 mg/L pyridoxine HCl, 10 mg/L thiamine HCl, 2.5 mg/L benzylaminopurine (BAP) and 20 nM DPP] contained in a 125 mL shake flask with a foam stopper. […]

CCOC(=O)COc1nn(-c2ccccc2)c(-c2ccccc2)c1Cl [DAS-PMTI-1]
Number of polymorphic bands, Total (JTNT1 single cells; all primer combinations, 14 d, Gly, 1 uM): 34
subculture cycles without genomic instability problem (JTNT1 single cells; concentration range tested): at least 4 subculture cycles
Number of polymorphic bands (JTNT1 single cells; primer 1p AC/CAG, 3.5 d, Gly, 1 uM): 0
Number of polymorphic bands (JTNT1 single cells; primer 1p AC/CAG, 3.5 d, Suc, 1 uM): 0
Number of polymorphic bands (JTNT1 single cells; primer 1p AC/CAG, 7 d, Gly, 1 uM): 0
Number of polymorphic bands (JTNT1 single cells; primer 1p AC/CAG, 7 d, Suc, 1 uM): 0
Number of polymorphic bands (JTNT1 single cells; primer 1p AC/CAG, 10.5 d, Gly, 1 uM): 0
Number of polymorphic bands (JTNT1 single cells; primer 1p AC/CAG, 10.5 d, Suc, 1 uM): 0
Number of polymorphic bands (JTNT1 single cells; primer 1p AC/CAG, 14 d, Gly, 1 uM): 5
Number of polymorphic bands (JTNT1 single cells; primer 1p AC/CAG, 14 d, Suc, 1 uM): 0
Number of polymorphic bands (JTNT1 single cells; primer 2p AGC/CAG, 3.5 d, Gly, 1 uM): 0
Number of polymorphic bands (JTNT1 single cells; primer 2p AGC/CAG, 3.5 d, Suc, 1 uM): 0
Number of polymorphic bands (JTNT1 single cells; primer 2p AGC/CAG, 7 d, Gly, 1 uM): 0
Number of polymorphic bands (JTNT1 single cells; primer 2p AGC/CAG, 7 d, Suc, 1 uM): 0
Number of polymorphic bands (JTNT1 single cells; primer 2p AGC/CAG, 10.5 d, Gly, 1 uM): 0
Number of polymorphic bands (JTNT1 single cells; primer 2p AGC/CAG, 10.5 d, Suc, 1 uM): 0
Number of polymorphic bands (JTNT1 single cells; primer 2p AGC/CAG, 14 d, Gly, 1 uM): 10
Number of polymorphic bands (JTNT1 single cells; primer 2p AGC/CAG, 14 d, Suc, 1 uM): 0
Number of polymorphic bands (JTNT1 single cells; primer 3p AGC/CTG, 3.5 d, Gly, 1 uM): 0
Number of polymorphic bands (JTNT1 single cells; primer 3p AGC/CTG, 3.5 d, Suc, 1 uM): 0
Number of polymorphic bands (JTNT1 single cells; primer 3p AGC/CTG, 7 d, Gly, 1 uM): 0
Number of polymorphic bands (JTNT1 single cells; primer 3p AGC/CTG, 7 d, Suc, 1 uM): 0
Number of polymorphic bands (JTNT1 single cells; primer 3p AGC/CTG, 10.5 d, Gly, 1 uM): 0
Number of polymorphic bands (JTNT1 single cells; primer 3p AGC/CTG, 10.5 d, Suc, 1 uM): 0
Number of polymorphic bands (JTNT1 single cells; primer 3p AGC/CTG, 14 d, Gly, 1 uM): 0
Number of polymorphic bands (JTNT1 single cells; primer 3p AGC/CTG, 14 d, Suc, 1 uM): 0
Number of polymorphic bands (JTNT1 single cells; primer 4p ACT/CTT, 3.5 d, Gly, 1 uM): 0
Number of polymorphic bands (JTNT1 single cells; primer 4p ACT/CTT, 3.5 d, Suc, 1 uM): 0
Number of polymorphic bands (JTNT1 single cells; primer 4p ACT/CTT, 7 d, Gly, 1 uM): 0
Number of polymorphic bands (JTNT1 single cells; primer 4p ACT/CTT, 7 d, Suc, 1 uM): 0
Number of polymorphic bands (JTNT1 single cells; primer 4p ACT/CTT, 10.5 d, Gly, 1 uM): 0
Number of polymorphic bands (JTNT1 single cells; primer 4p ACT/CTT, 10.5 d, Suc, 1 uM): 0
Number of polymorphic bands (JTNT1 single cells; primer 4p ACT/CTT, 14 d, Gly, 1 uM): 5
Number of polymorphic bands (JTNT1 single cells; primer 4p ACT/CTT, 14 d, Suc, 1 uM): 0
Number of polymorphic bands (JTNT1 single cells; primer 5p ACT/CAG, 3.5 d, Gly, 1 uM): 0
Number of polymorphic bands (JTNT1 single cells; primer 5p ACT/CAG, 3.5 d, Suc, 1 uM): 0
Number of polymorphic bands (JTNT1 single cells; primer 5p ACT/CAG, 7 d, Gly, 1 uM): 0
Number of polymorphic bands (JTNT1 single cells; primer 5p ACT/CAG, 7 d, Suc, 1 uM): 0
Number of polymorphic bands (JTNT1 single cells; primer 5p ACT/CAG, 10.5 d, Gly, 1 uM): 0
Number of polymorphic bands (JTNT1 single cells; primer 5p ACT/CAG, 10.5 d, Suc, 1 uM): 0
Number of polymorphic bands (JTNT1 single cells; primer 5p ACT/CAG, 14 d, Gly, 1 uM): 3
Number of polymorphic bands (JTNT1 single cells; primer 5p ACT/CAG, 14 d, Suc, 1 uM): 0
Number of polymorphic bands (JTNT1 single cells; primer 7p ACC/CAG, 3.5 d, Gly, 1 uM): 0
Number of polymorphic bands (JTNT1 single cells; primer 7p ACC/CAG, 3.5 d, Suc, 1 uM): 0
Number of polymorphic bands (JTNT1 single cells; primer 7p ACC/CAG, 7 d, Gly, 1 uM): 0
Number of polymorphic bands (JTNT1 single cells; primer 7p ACC/CAG, 7 d, Suc, 1 uM): 0
Number of polymorphic bands (JTNT1 single cells; primer 7p ACC/CAG, 10.5 d, Gly, 1 uM): 0
Number of polymorphic bands (JTNT1 single cells; primer 7p ACC/CAG, 10.5 d, Suc, 1 uM): 0
Number of polymorphic bands (JTNT1 single cells; primer 7p ACC/CAG, 14 d, Gly, 1 uM): 4
Number of polymorphic bands (JTNT1 single cells; primer 7p ACC/CAG, 14 d, Suc, 1 uM): 0
Number of polymorphic bands (JTNT1 single cells; primer 8p ACC/CTG, 3.5 d, Gly, 1 uM): 0
Number of polymorphic bands (JTNT1 single cells; primer 8p ACC/CTG, 3.5 d, Suc, 1 uM): 0
Number of polymorphic bands (JTNT1 single cells; primer 8p ACC/CTG, 7 d, Gly, 1 uM): 0
Number of polymorphic bands (JTNT1 single cells; primer 8p ACC/CTG, 7 d, Suc, 1 uM): 0
Number of polymorphic bands (JTNT1 single cells; primer 8p ACC/CTG, 10.5 d, Gly, 1 uM): 0
Number of polymorphic bands (JTNT1 single cells; primer 8p ACC/CTG, 10.5 d, Suc, 1 uM): 0
Number of polymorphic bands (JTNT1 single cells; primer 8p ACC/CTG, 14 d, Gly, 1 uM): 0
Number of polymorphic bands (JTNT1 single cells; primer 8p ACC/CTG, 14 d, Suc, 1 uM): 0
Number of polymorphic bands (JTNT1 single cells; primer 9p ACA/CAG, 3.5 d, Gly, 1 uM): 0
Number of polymorphic bands (JTNT1 single cells; primer 9p ACA/CAG, 3.5 d, Suc, 1 uM): 0
Number of polymorphic bands (JTNT1 single cells; primer 9p ACA/CAG, 7 d, Gly, 1 uM): 0
Number of polymorphic bands (JTNT1 single cells; primer 9p ACA/CAG, 7 d, Suc, 1 uM): 0
Number of polymorphic bands (JTNT1 single cells; primer 9p ACA/CAG, 10.5 d, Gly, 1 uM): 0
Number of polymorphic bands (JTNT1 single cells; primer 9p ACA/CAG, 10.5 d, Suc, 1 uM): 0
Number of polymorphic bands (JTNT1 single cells; primer 9p ACA/CAG, 14 d, Gly, 1 uM): 7
Number of polymorphic bands (JTNT1 single cells; primer 9p ACA/CAG, 14 d, Suc, 1 uM): 0
single cell production (Tobacco BY2 suspension; 20 nM, Medium A and Medium B, 7 days): produced single cells
cells with single nucleus with one or two nucleoli (Tobacco BY2 suspension; 1 uM, 3.5 days of culture, LSBY2 Glycerol medium): 90%

Source: patent US8206983B2, “In vitro methods for the induction and maintenance of plant cell lines as single suspension cells with intact cell walls” (Dow AgroSciences, LLC., priority 2006, dated 2012)
